In paper PMC4170738 (RSC advances, 2014):

Columns and labels:
[1] = tested on: control strain SME3359 (lacZ reporter under synthetic promoter repressed by LacI); experiment: Control strain dose-response assay; type: cell-based, E. coli; settings: for Control strain IC50: E. coli strain SME3359, 1 mM IPTG, 3 hours at 37°C, 6.2% DMSO; for IC50: Escherichia coli, 3 h, read-out: Control strain IC50
[2] = Stability towards thiol nucleophile glutathione; type: physicochemical; settings: 10 µM in PBS pH 7.4 (1% DMSO), 50 µM GSH, room temperature, up to 48 hours
[3] = tested on: E. coli strains SME4382 and SME3359; experiment: E. coli growth experiments; type: cell-based; settings: VirF and control strains, TY broth, 44 µM compound, 6.2% DMSO, 37°C
VirF [4] = biological target: T1, VirF (Shigella flexneri, UniProt P0A2T1); experiment: cell-based; type: cell-based; settings: for VirF IC50: E. coli strain SME4382, virB-lacZ fusion, 1 mM IPTG, 3 hours at 37°C, 6.2% DMSO
T1 sequence (P0A2T1 whole entry, the tested form may be a part): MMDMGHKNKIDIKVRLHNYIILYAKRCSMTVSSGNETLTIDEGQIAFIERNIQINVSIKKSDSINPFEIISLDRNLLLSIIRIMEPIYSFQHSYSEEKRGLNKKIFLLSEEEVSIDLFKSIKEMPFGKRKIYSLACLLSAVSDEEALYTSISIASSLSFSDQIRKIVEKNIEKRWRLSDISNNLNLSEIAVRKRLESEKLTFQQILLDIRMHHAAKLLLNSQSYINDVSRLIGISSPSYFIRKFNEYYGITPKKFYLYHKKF

VirF [5] = biological target: T1, VirF; settings: cell-based reporter gene assays with S. flexneri and E. coli; cited from earlier work
[6] = Aqueous stability in PBS pH 7.4 by RP HPLC/UV/HRMS; type: physicochemical; settings: 10 µM in PBS pH 7.4 (1% DMSO), room temperature; by the 0th time point, about 30 minutes elapsed
VirF [7] = biological target: T1, VirF; settings: purified VirF, in vitro; cited from earlier work
[8] = tested on: VirF-dependent virulence genes (icsS, icsB, ipaB, virB); settings: virB in S. flexneri; cited from earlier work

Compound | Control strain IC50 [1] | VirF IC50 (VirF [4]) | also measured
1‧-hexyl-[2,3‧-biquinolin]-1‧-ium bromide [Entry 21] | not inhibiting the control strain | – | –
1‧-propyl-[2,3‧-biquinolin]-1‧-ium bromide [Entry 20] | not inhibiting the control strain | – | –
Clc1ccc(C[n+]2cc(-c3ccc4ccccc4n3)cc3ccccc32)cc1.[Br-] [Entry 3, 1‧-(4-chlorobenzyl)-[2,3‧-biquinolin]-1‧-ium bromide] | – | – | GSH adduct formation [2]: no GSH adducts were observed
CCCCN1C=C(c2cccc(C)n2)C(C[N+](=O)[O-])c2ccccc21 (centres unmarked) [Entry 6, 1-butyl-3-(6-methylpyridin-2-yl)-4-(nitromethyl)-1,4-dihydroquinoline] | – | – | Effect on bacterial growth [3]: inhibited the growth of the bacteria; IC50 [1]: > 100 µM; IC50 (VirF [4]): > 100 µM
CCCCN1C=C(c2cccc(Cl)c2)C(C[N+](=O)[O-])c2ccccc21 (centres unmarked) [Entry 7, 1-butyl-3-(3-chlorophenyl)-4-(nitromethyl)-1,4-dihydroquinoline] | – | – | IC50 [1]: > 100 µM
CCCCN1C=C(c2ccc3ccccc3n2)C(c2ccccc2)c2ccccc21 (centres unmarked) [Entry 8, 1‧-butyl-4‧-phenyl-1‧,4‧-dihydro-2,3‧-biquinoline] | No inhibition | No inhibition | –
CCCCN1c2ccccc2C=C(c2ccc3ccccc3n2)C1C (centres unmarked) [Entry 10, 1‧-butyl-2‧-methyl-1‧,2‧-dihydro-2,3‧-biquinoline] | No inhibition | No inhibition | –
CCCCn1cc(-c2ccc3ccccc3n2)c2ccccc21 [Entry 12, 2-(1-butyl-1 H-indol-3-yl)quinoline] | no inhibitory activity | no inhibitory activity | –
CCCCn1c2ccccc2c(=O)c2ccccc21 [Entry 15, 10-butylacridin-9(10H)-one] | no inhibitory activity | no inhibitory activity | –
CCCCCCCCC[n+]1ccccc1.[Br-] [Entry 17, 1-nonylpyridin-1-ium bromide] | good to modest, non-specific activity | good to modest, non-specific activity | IC50 [1]: > 50 µM; IC50 (VirF [4]): > 50 µM
CCCCCCCCC[N+](CC)(CC)CC.[Br-] [Entry 18, N,N,N-triethylnonan-1-aminium bromide] | no inhibitory activity | no inhibitory activity | –
CC(C)[n+]1cc(-c2ccc3ccccc3n2)cc2ccccc21.[I-] [Entry 19, 1‧-isopropyl-[2,3‧-biquinolin]-1‧-ium iodide] | not inhibiting the control strain | – | –
CCCC[n+]1cc(-c2ccc3ccccc3c2)cc2ccccc21 [Entry 23, 1-butyl-3-(naphthalen-2-yl)quinolin-1-ium bromide] | – | – | IC50 [1]: > 100 µM; IC50 (VirF [4]): 9 µM
C=CCCC[n+]1cc(-c2ccc3ccccc3n2)cc2ccccc21.[Br-] [Entry 24, 1‧-(pent-4-en-1-yl)-[2,3‧-biquinolin]-1’-ium bromide] | not inhibiting the control strain | – | –
CCCCN1C=C(c2ccc3ccccc3n2)C(C[N+](=O)[O-])c2ccccc21 (centres unmarked) [SE-1, 1‧-Butyl-4‧-(nitromethyl)-1‧,4’-dihydro-2,3‧-biquinoline] | – | – | Inhibition of transcription activation by VirF (VirF [5]): inhibitor; Aqueous stability (degradation to the corresponding quaternary salt) [6]: degraded completely; Inhibition of DNA binding by VirF (VirF [7]): inhibitor; Expression of VirF-dependent virulence genes (mRNA) [8]: reduced the expression
